Measured values reported in patent publication US20240051985A1, “METTL3 MODULATORS” (ACCENT THERAPEUTICS, INC., priority 2020, published 2024).
pIC50: −log10 of the molar value.

What was measured:
[1] = biological target: METTL3/METTL14 (Homo sapiens, UniProt Q86U44); assay: METTL3-14 standard enzyme assay (3H-SAM flashplate); settings: METTL3 biochemical assay
In short: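 METTL3/METTL14 (2.5 nM) preincubated 5 min, then reacted with 3′-biotinylated RNA UCUGGACUAAA (100 nM) and 3H-SAM (100 nM) for 30 min at ambient temperature in 20 mM HEPES pH 7.5, 50 mM KCl, 250 μM MgCl2, 1 mM DTT. Quenched with 15 μM cold SAM; product captured on streptavidin flashplates, scintillation counted.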

[2] = biological target: PRMT5-MEP50 (Homo sapiens, UniProt O14744); assay: PRMT5 assay (3H-SAM flashplate); settings: PRMT5 biochemical assay
Sequence of PRMT5-MEP50 (O14744 whole entry): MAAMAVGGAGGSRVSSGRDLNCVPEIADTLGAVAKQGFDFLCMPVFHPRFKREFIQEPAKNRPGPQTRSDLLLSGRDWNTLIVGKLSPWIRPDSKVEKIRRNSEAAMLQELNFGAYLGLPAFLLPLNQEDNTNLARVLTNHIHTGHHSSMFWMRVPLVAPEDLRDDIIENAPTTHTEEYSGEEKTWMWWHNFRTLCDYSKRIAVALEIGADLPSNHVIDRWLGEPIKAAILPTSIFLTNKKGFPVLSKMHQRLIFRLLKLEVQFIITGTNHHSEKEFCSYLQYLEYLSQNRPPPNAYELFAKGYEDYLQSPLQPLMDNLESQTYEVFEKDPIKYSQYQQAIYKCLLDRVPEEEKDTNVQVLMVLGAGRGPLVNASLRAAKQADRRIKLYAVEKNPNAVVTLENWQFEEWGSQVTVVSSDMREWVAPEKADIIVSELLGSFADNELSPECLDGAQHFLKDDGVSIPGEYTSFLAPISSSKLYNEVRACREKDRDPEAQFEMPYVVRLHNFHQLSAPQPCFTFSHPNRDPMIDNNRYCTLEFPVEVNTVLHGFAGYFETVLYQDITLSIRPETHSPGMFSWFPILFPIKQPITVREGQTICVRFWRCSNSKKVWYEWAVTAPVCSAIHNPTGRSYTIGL
Sequence of PRMT5-MEP50 (Q9BQA1 whole entry partner): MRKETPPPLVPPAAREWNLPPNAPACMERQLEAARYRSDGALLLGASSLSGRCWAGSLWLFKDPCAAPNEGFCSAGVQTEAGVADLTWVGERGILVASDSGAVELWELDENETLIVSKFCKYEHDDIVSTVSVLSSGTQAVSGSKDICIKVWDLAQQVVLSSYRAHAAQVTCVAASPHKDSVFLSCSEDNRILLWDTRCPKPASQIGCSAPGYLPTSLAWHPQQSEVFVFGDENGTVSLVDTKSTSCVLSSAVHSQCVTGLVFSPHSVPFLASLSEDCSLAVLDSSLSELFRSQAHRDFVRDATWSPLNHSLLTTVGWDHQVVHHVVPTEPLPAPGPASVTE
In short: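 PRMT5-MEP50 at 2.5 nM, preincubated 5 min with compound in 20 mM Tris-HCl pH 8.0, 1 mM DTT, 0.01% Tween at ambient temperature. Biotinylated acetylated histone H4 peptide (100 nM) and 3H-SAM (250 nM) react 60 min, quenched with 15 μM cold SAM; methylation captured on streptavidin flashplates and scintillation-counted.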

[3] = tested on: m^6A in cellular mRNA of MOLM-13 cells; assay: m^6A-mRNA LC-MS/MS assay (m^6A cellular assay); type: cell-based; settings: Homo sapiens, Table 3, 24 hours
Description: 5×10^6 MOLM-13 (DSMZ) cells were seeded into 10 cm dishes in RPMI 1640 media containing 10% fetal bovine serum and placed in a humidified tissue culture incubator at 37° C. overnight. Compounds were resuspended in 100% DMSO and dosed into each dish at a fixed concentration to comprise an 8-point dose response with a 4-fold serial dilution ranging from 25 μM to 1.5 nM in 0.25% DMSO final and allowed to incubate for 24 hours in a humidified tissue culture incubator at 37° C. Cells were harvested by centrifugation followed by mRNA extraction using DIRECT Dynabeads mRNA DIRECT kit (Life Technologies). mRNA was quantified on NanoDrop spectrophotometer (Thermo Fisher Scientific) and digested into single nucleosides using Nucleoside Digestion Mix (New England Biolabs). Nucleosides are quantified with retention time on a BEH C18 column (Waters) and the nucleoside-to-base ion mass transition of 282.1-150.1 (m^6A) and 268-136 (A) on an API 6500+ triple quadrupole mass spectrometer. Quantification is performed in comparison with the standard curve, obtained from pure nucleoside standards (Selleck Chemicals) running with the same batch of samples. Percentage m^6A in cellular mRNA is calculated as 100*(m^6A/A).

[4] = biological target: T1, FLT3 (Homo sapiens, UniProt P36888); assay: FLT3 LanthaScreen assay; type: biochemical; settings: Table 4
T1 sequence (P36888 27-993): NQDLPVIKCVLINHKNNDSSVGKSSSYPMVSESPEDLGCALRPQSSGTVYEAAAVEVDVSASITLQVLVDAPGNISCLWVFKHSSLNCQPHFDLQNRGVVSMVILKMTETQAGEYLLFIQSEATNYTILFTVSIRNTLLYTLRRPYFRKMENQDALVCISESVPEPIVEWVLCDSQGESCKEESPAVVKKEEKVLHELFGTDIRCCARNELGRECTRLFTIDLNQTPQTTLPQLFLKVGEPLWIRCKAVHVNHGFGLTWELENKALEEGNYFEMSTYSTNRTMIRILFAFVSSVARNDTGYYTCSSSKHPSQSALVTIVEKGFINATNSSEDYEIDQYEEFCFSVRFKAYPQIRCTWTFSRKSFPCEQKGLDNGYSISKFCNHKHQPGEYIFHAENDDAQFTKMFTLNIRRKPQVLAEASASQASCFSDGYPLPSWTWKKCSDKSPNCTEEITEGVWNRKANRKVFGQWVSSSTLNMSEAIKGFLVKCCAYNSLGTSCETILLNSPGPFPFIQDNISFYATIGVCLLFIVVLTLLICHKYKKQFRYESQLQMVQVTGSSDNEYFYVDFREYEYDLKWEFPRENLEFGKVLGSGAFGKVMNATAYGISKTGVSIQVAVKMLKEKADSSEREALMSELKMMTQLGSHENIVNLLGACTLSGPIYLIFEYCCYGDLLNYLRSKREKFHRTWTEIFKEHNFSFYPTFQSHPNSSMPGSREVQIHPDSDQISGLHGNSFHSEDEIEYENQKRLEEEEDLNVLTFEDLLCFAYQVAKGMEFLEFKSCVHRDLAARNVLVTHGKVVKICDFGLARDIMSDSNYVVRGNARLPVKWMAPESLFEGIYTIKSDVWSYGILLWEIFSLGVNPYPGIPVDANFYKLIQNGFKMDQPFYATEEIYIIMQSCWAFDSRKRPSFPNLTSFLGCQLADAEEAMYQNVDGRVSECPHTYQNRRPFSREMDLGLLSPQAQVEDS
Description: (§1) FLT3/FLT3-ITD LanthaScreen Assays
(§2) Assays were performed in a 10 μl-volume in 384-well polypropylene microplates (Perkin Elmer Proxiplate, cat. No. 6059480) at ambient temperature. Optimized 1× assay buffer was 50 mM Hepes pH 7.5, 2 mM DTT, 0.01% Tween, 0.01% BSA, 10 mM MgCl2. For compound screening FLT3 (final concentration, f.c.=[…]) or FLT3-ITD (f.c.=[…]) was added using a Multidrop Combi (ThermoFisher Scientific, Waltham, MA) and preincubated for 10 min. Reactions were started by adding fluorescein-poly GT (f.c.=200 nM) and ATP (f.c.=57 μM) substrates. Reactions proceeded for 40 minutes. The reactions were stopped with a detection mixture of EDTA (f.c.=20 mM) and terbium-conjugated anti-phoso tyrosine antibody pY20 (f.c.=2 nM). The plates were sealed and read on an Envision (PerkinElmer, Waltham, MA) using 340 nm excitation and emission reads at 495 and 520 nM.

[5] = biological target: T2, FLT3-ITD (Homo sapiens, UniProt P36888); assay: FLT3-ITD LanthaScreen assay; type: biochemical; settings: Table 4
T2 sequence (P36888 1-993): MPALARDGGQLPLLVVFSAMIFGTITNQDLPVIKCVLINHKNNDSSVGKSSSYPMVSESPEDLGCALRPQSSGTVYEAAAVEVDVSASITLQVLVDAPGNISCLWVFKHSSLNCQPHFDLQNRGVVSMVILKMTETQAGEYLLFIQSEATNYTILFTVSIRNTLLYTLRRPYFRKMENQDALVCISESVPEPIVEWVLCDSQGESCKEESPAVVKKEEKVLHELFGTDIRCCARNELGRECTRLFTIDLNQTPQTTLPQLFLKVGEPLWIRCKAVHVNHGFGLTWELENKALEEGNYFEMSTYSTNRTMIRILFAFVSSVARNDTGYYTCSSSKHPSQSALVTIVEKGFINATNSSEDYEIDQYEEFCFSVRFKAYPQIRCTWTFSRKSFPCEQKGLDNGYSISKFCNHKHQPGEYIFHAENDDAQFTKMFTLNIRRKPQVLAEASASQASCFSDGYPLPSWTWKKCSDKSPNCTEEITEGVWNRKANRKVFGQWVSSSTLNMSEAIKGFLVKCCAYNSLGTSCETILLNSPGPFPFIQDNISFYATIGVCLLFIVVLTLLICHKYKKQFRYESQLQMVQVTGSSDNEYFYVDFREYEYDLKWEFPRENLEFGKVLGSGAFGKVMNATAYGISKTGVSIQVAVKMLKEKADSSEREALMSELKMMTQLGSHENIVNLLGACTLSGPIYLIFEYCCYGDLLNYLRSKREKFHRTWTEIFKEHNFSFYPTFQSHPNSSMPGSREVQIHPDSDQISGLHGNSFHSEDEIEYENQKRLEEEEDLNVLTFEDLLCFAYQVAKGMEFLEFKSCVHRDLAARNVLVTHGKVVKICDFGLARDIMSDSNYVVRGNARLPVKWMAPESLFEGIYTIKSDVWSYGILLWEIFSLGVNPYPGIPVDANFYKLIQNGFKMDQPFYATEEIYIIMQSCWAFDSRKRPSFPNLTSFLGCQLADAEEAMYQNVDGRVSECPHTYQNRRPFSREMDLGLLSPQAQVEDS
Description: as §1, §2

Sequence of METTL3/METTL14 (Q86U44 whole entry, species assumed): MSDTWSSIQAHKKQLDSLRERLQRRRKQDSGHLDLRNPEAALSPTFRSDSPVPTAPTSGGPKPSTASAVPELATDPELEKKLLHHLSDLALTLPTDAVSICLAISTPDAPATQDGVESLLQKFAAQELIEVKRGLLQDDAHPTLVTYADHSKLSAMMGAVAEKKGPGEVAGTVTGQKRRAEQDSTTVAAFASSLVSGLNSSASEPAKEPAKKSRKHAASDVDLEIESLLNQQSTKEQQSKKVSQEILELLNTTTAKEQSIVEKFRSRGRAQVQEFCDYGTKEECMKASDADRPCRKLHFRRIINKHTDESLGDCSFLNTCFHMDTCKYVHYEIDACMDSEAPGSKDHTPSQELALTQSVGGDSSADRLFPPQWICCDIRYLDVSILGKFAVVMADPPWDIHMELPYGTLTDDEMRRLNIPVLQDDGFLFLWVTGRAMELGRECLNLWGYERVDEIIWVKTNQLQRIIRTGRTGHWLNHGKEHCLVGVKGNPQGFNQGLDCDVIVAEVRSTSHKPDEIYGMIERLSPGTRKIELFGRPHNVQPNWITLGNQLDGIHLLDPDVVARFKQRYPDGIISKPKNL
Sequence of METTL3/METTL14 (Q9HCE5 whole entry partner, species assumed): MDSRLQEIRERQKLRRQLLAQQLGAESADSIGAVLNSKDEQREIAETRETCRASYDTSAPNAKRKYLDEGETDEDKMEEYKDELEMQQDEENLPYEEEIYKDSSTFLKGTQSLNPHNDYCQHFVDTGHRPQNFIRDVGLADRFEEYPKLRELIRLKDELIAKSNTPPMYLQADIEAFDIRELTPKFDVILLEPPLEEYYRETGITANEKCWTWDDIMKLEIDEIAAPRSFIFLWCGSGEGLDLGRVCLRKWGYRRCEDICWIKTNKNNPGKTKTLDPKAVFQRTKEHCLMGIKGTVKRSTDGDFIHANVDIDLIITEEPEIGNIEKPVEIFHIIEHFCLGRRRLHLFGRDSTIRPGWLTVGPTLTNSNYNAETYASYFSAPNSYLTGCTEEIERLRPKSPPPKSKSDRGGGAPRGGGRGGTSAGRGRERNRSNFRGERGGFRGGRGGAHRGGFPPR

Compound	pIC50 ([1]; Table 3)	pIC50 ([2]; Table 3)	pIC50 [3]	pIC50 ([1]; Table 4)	pIC50 ([2]; Table 4)	pIC50 [4]	pIC50 [5]
Cn1ccc(-c2cn([C@@H]3O[C@H](C(=O)Nc4ccc5ccc(N6CCC6)nc5c4)[C@@H](O)[C@H]3O)c3ncnc(N)c23)n1 [Compound I-10, (2S,3S,4R,5R)-5-[4-amino-5-(1-methyl-1H-pyrazol-3-yl)-7H-pyrrolo[2,3-d]pyrimidin-7-yl]-N-[2-(azetidin-1-yl)quinolin-7-yl]-3,4-dihydroxyoxolane-2-carboxamide]	> 8.00	7.00 to 8.00	> 6.00	–	–	–	–
CNc1ccc2ccc(NC(=O)[C@H]3O[C@@H](n4cc(-c5ccn(C)n5)c5c(N)ncnc54)[C@H](O)[C@@H]3O)cc2n1 [Compound I-32, (2S,3S,4R,5R)-5-[4-amino-5-(1-methyl-1H-pyrazol-3-yl)-7H-pyrrolo[2,3-d]pyrimidin-7-yl]-3,4-dihydroxy-N-[2-(methylamino)quinolin-7-yl]oxolane-2-carboxamide]	> 8.00	> 8.00	> 6.00	–	–	–	–
CN1[C@@H]2CC[C@H]1C[C@@H](NC(=O)[C@H]1O[C@@H](n3cc(-c4ccn(C)n4)c4c(N)ncnc43)[C@H](O)[C@@H]1O)C2 [Compound I-187]	–	–	–	6.00 to 7.00	7.00 to 8.00	≤ 6.00	≤ 6.00
Cn1ccc(-c2cn([C@@H]3O[C@H](C(=O)NC4CCc5cnc(N)nc5C4)[C@@H](O)[C@H]3O)c3ncnc(N)c23)n1 (some centres unmarked) [Compound I-188]	–	–	–	6.00 to 7.00	6.00 to 7.00	≤ 6.00	≤ 6.00
Cn1ccc(-c2cn([C@@H]3O[C@H](C(=O)NC4CCNC(C)(C)C4)[C@@H](O)[C@H]3O)c3ncnc(N)c23)n1 (some centres unmarked) [Compound I-189]	–	–	–	6.00 to 7.00	7.00 to 8.00	≤ 6.00	≤ 6.00
C[C@H]1C[C@H](NC(=O)[C@H]2O[C@@H](n3cc(-c4ccn(C)n4)c4c(N)ncnc43)[C@H](O)[C@@H]2O)CCN1 [Compound I-190]	–	–	–	≤ 6.00	≤ 6.00	≤ 6.00	≤ 6.00
Cn1ccc(-c2cn([C@@H]3O[C@H](C(=O)NC4CCc5nc[nH]c5C4)[C@@H](O)[C@H]3O)c3ncnc(N)c23)n1 (some centres unmarked) [Compound I-194]	–	–	–	7.00 to 8.00	6.00 to 7.00	≤ 6.00	≤ 6.00
C[C@H](NC(=O)[C@H]1O[C@@H](n2cc(-c3ccn(C)n3)c3c(N)ncnc32)[C@H](O)[C@@H]1O)C1CCNCC1 [Compound I-195]	–	–	–	6.00 to 7.00	6.00 to 7.00	≤ 6.00	≤ 6.00
CN1CC[C@H](NC(=O)[C@H]2O[C@@H](n3cc(-c4ccn(C)n4)c4c(N)ncnc43)[C@H](O)[C@@H]2O)C1 [Compound I-203]	–	–	–	6.00 to 7.00	7.00 to 8.00	≤ 6.00	≤ 6.00
CN1[C@@H]2CC[C@H]1C[C@H](NC(=O)[C@H]1O[C@@H](n3cc(-c4ccn(C)n4)c4c(N)ncnc43)[C@H](O)[C@@H]1O)C2 [Compound I-205]	–	–	–	6.00 to 7.00	6.00 to 7.00	≤ 6.00	≤ 6.00
Cn1ccc(-c2cn([C@@H]3O[C@H](C(=O)N[C@H]4CC[C@@](C)(O)CC4)[C@@H](O)[C@H]3O)c3ncnc(N)c23)n1 [Compound I-209]	–	–	–	6.00 to 7.00	≤ 6.00	≤ 6.00	≤ 6.00
Cn1ccc(-c2cn([C@@H]3O[C@H](C(=O)NC4CC5(CNC5)C4)[C@@H](O)[C@H]3O)c3ncnc(N)c23)n1 [Compound I-210]	–	–	–	6.00 to 7.00	7.00 to 8.00	≤ 6.00	≤ 6.00
Cn1ccc(-c2cn([C@@H]3O[C@H](C(=O)N[C@H]4CCCNC4)[C@@H](O)[C@H]3O)c3ncnc(N)c23)n1 [Compound I-219]	–	–	–	6.00 to 7.00	7.00 to 8.00	≤ 6.00	≤ 6.00
Cn1ccc(-c2cn([C@@H]3O[C@H](C(=O)N[C@@H]4CCCNC4)[C@@H](O)[C@H]3O)c3ncnc(N)c23)n1 [Compound I-220]	–	–	–	6.00 to 7.00	> 8.00	≤ 6.00	≤ 6.00
C[C@@H]1C[C@@H](NC(=O)[C@H]2O[C@@H](n3cc(-c4ccn(C)n4)c4c(N)ncnc43)[C@H](O)[C@@H]2O)CCN1C [Compound I-233]	–	–	–	6.00 to 7.00	6.00 to 7.00	≤ 6.00	≤ 6.00
C[C@H]1C[C@H](NC(=O)[C@H]2O[C@@H](n3cc(-c4ccn(C)n4)c4c(N)ncnc43)[C@H](O)[C@@H]2O)CCN1C [Compound I-234]	–	–	–	6.00 to 7.00	6.00 to 7.00	≤ 6.00	≤ 6.00
